Laboratory results published in patent US20240165244A1 (Prelude Therapeutics Incorporated, priority 2022, published 2024).

Legend:
SMARCA2 = target: T1, SMARCA2 (Homo sapiens, UniProt P51531); test: SMARCA2 HiBiT degradation assay in HeLa cells; assay type: cell-based; details: 18 hours, highest concentration 10 μM
T1 construct: SMARCA2-HiBiT knock-in Hela monoclonal cell (CS302366); host or cells: HeLa monoclonal cells with heterozygous HiBiT knock-in at the endogenous SMARCA2 locus
Description: (§1) SMARCA2 HiBiT and SMARCA4 HiBiT Degradation Assay
HiBiT peptide knock-in of SMARCA2 in LgBiT expressing HEK293T cells was performed by CRISPR-mediated tagging system as described Promega. The homozygous HiBiT knock-in on c-terminus SMARCA2 was confirmed by sanger sequence. SMARCA2-HiBiT knock-in Hela monoclonal cell (CS302366) and SMARCA4-HiBiT knock-in Hela monoclonal cell (CS3023226) were purchased from Promega. The heterozygous HiBiT-knock-in was confirmed by sanger sequence in both SMARCA2-HiBiT and SMARCA4-HiBiT monoclonal cells.
(§2) SMARCA2 HiBiT and SMARCA4 HiBiT Degradation Assay in HeLa Cells
Dispense 10 ul aliquot of prepared Hela-SMARCA2-HiBiT or Hela-SMARCA4-HiBiT cells (1:1 ratio of cells:Trypan Blue (#1450013, Bio-Rad)) onto cell counting slide (#145-0011, Bio-Rad) and obtain cell density and cell viability using cell counter (TC20, Bio-Rad). Remove appropriate volume of resuspended cells from culture flask to accommodate 2500 cells/well @ 20 μL/well. Transfer Hela-HiBiT cells to 50 mL conical (#430290, Corning). Spin down at 1000 rpm for 5 min using tabletop centrifuge (SPINCHRON 15, Beckman). Discard supernatant and resuspend cell pellet in modified EMEM (#30-2003, ATCC) cell culture media containing 10% FBS (F2422-500ML, Sigma), and 1× Penicillin/Streptomycin ([…]) (30-002-CI, Corning) to a cell density of 125,000 cells/mL. Dispense 20 μLof resuspended Hela-HiBit cells per well in 384-well TC treated plate (#12-565-343, Thermo Scientific) using standard cassette (#50950372, Thermo Scientific) on Multidrop Combi (#5840310, Thermo Scientific) inside laminar flow cabinet.
Compounds were dissolved in DMSO to make 10 mM stock and 3-fold series dilutions were further conducted keeping the highest concentration 10 μM. Dispense test compounds onto plates using digital liquid dispenser (D300E, Tecan). Incubate plates in humidified tissue culture incubator @37° C. for 18 hours. Add 20 μL of prepared Nano-Glo® HiBiT Lytic detection buffer (N3050, Promega) to each well of 384-well plate using small tube cassette (#24073295, Thermo Scientific) on Multidrop Combi, incubate @ RT for 30-60 min. Read plates on microplate reader (Envision 2105, PerkinElmer) using 384 well Ultra-Sensitive luminescence mode. Raw data files and compound information reports are swept into centralized data lake and deconvoluted using automated scripts designed by TetraScience, Inc. Data analysis, curve-fitting and reporting done in Dotmatics Informatics Suite using Screening Ultra module.

SMARCA4 = target: T2, SMARCA4 (Homo sapiens, UniProt P51532); test: SMARCA4 HiBiT degradation assay in HeLa cells; assay type: cell-based; details: 18 hours, highest concentration 10 μM
T2 construct: SMARCA4-HiBiT knock-in Hela monoclonal cell (CS3023226); host or cells: HeLa monoclonal cells with heterozygous HiBiT knock-in at the endogenous SMARCA4 locus
T2 sequence (P51532 whole entry): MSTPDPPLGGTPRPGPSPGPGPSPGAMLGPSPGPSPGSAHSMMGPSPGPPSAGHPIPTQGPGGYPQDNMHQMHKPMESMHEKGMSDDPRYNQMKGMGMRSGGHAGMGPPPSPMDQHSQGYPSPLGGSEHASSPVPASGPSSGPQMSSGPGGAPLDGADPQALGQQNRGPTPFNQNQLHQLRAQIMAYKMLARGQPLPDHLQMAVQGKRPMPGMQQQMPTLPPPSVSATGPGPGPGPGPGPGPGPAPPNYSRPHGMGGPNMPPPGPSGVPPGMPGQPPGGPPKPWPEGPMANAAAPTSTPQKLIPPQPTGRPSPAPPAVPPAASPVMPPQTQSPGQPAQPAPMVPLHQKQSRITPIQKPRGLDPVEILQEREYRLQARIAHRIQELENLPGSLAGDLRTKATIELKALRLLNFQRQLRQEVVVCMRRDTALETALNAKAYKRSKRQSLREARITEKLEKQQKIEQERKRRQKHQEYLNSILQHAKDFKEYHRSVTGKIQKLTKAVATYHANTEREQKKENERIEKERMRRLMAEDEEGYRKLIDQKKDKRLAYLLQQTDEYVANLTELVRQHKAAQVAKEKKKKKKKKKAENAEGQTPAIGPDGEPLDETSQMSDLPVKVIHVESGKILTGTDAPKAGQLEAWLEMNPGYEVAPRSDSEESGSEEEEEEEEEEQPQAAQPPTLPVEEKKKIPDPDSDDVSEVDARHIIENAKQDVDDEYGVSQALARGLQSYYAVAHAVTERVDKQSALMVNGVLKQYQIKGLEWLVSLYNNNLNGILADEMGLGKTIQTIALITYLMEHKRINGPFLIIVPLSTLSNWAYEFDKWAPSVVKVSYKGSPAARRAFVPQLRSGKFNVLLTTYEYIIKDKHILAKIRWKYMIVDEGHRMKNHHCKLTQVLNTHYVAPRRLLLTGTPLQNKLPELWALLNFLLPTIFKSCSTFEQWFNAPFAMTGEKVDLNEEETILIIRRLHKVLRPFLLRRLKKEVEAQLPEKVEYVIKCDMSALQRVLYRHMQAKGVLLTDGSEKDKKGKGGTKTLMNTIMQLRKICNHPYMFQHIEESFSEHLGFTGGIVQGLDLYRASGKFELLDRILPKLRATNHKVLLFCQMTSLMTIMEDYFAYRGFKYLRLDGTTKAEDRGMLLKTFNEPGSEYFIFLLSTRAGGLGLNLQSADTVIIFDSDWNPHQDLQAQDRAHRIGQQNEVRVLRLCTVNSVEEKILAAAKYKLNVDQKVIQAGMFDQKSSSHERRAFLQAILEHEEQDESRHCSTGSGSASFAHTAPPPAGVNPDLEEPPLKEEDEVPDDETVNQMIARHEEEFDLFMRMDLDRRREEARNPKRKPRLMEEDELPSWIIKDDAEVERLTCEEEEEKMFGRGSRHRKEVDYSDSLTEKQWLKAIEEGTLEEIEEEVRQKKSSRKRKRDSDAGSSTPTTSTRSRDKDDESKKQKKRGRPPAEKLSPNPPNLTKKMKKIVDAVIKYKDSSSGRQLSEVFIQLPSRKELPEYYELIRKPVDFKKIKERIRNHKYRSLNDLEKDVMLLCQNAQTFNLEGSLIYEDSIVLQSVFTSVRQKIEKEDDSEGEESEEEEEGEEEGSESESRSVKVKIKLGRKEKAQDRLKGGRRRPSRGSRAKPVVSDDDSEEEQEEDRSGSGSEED
Description: as §1
HiBiT peptide knock-in of SMARCA2 in LgBiT expressing HEK293T cells was performed by CRISPR-mediated tagging system as described Promega. […] SMARCA2-HiBiT knock-in Hela monoclonal cell (CS302366) and SMARCA4-HiBiT knock-in Hela monoclonal cell (CS3023226) were purchased from Promega.
as §2
Remove appropriate volume of resuspended cells from culture flask to accommodate 2500 cells/well @ 20 μL/well. […] Spin down at 1000 rpm for 5 min using tabletop centrifuge (SPINCHRON 15, Beckman).
Dispense test compounds onto plates using digital liquid dispenser (D300E, Tecan). Incubate plates in humidified tissue culture incubator @37° C. for 18 hours. […] Raw data files and compound information reports are swept into centralized data lake and deconvoluted using automated scripts designed by TetraScience, Inc. Data analysis, curve-fitting and reporting done in Dotmatics Informatics Suite using Screening Ultra module.

T1 sequence (P51531 whole entry): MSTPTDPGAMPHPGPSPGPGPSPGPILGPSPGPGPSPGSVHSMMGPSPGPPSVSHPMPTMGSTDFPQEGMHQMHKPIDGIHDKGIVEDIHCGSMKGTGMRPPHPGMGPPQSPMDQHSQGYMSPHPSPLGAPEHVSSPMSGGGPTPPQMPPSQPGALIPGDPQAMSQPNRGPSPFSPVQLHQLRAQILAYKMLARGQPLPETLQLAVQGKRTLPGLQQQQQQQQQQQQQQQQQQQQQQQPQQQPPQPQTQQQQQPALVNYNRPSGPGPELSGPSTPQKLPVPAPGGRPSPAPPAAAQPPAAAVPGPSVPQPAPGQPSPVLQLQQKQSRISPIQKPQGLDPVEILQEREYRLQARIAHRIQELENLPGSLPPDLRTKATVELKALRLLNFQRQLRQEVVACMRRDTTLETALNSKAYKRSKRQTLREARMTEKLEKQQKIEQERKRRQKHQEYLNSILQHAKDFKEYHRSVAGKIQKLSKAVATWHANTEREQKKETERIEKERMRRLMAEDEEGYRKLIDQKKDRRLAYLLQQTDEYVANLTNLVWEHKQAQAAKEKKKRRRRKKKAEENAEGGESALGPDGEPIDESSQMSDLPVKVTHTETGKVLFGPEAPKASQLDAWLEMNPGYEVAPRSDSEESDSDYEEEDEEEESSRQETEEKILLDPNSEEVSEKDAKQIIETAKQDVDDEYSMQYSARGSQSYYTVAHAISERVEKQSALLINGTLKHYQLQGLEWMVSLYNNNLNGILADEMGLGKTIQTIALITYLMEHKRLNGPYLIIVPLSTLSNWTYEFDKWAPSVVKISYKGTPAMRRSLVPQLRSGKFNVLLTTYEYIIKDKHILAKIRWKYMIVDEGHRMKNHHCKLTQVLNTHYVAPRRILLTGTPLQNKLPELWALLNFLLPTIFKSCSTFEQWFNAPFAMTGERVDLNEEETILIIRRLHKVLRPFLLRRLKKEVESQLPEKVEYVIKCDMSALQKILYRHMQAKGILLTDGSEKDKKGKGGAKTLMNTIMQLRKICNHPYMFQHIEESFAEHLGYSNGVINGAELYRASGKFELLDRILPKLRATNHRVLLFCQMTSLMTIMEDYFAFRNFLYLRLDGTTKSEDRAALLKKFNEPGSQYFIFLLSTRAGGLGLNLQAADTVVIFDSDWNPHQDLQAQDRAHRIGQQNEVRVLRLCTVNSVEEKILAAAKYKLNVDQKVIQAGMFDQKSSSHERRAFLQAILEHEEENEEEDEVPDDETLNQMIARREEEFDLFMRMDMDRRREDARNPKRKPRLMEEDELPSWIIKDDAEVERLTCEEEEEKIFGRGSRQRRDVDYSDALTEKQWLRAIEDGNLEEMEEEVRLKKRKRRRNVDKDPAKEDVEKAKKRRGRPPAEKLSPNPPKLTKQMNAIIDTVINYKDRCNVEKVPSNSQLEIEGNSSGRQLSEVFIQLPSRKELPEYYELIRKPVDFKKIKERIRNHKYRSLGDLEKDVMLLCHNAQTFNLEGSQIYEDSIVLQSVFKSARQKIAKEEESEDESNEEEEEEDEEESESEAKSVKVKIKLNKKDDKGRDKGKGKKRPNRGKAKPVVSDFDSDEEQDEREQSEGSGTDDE

DC50 (SMARCA2) [µM] | Dmax (SMARCA2) [%] | DC50 (SMARCA4) [µM] | Dmax (SMARCA4) [%] | Structure (SMILES)
< 0.1 | > 75 | < 0.1 | > 75 | O=C1CCC(N2Cc3ccc(N4CCN(Cc5ccc(O[C@@H]6C[C@@H]7CNc8nnc(-c9cc(F)cc(F)c9O)cc8N7C6)cc5F)CC4)cc3C2=O)C(=O)N1 (stereo partly drawn) [Example 13, 3-(6-(4-(4-(((6aR,8R)-2-(3,5-difluoro-2-hydroxyphenyl)-5,6,6a,7,8,9-hexahydropyrrolo[1′,2′:4,5]pyrazino[2,3-c]pyridazin-8-yl)oxy)-2-fluorobenzyl)piperazin-1-yl)-1-oxoisoindolin-2-yl)piperidine-2,6-dione]
< 0.1 | > 75 | < 0.1 | > 75 | CC(C)c1cc(CN2CCN(c3ccc4c(c3)C(=O)N(C3CCC(=O)NC3=O)C4)CC2)ccc1O[C@@H]1C[C@@H]2CNc3nnc(-c4cc(F)cc(F)c4O)cc3N2C1 (stereo partly drawn) [Example 14, 3-(6-(4-(4-(((6aR,8R)-2-(3,5-difluoro-2-hydroxyphenyl)-5,6,6a,7,8,9-hexahydropyrrolo[1′,2′:4,5]pyrazino[2,3-c]pyridazin-8-yl)oxy)-3-isopropylbenzyl)piperazin-1-yl)-1-oxoisoindolin-2-yl)piperidine-2,6-dione]
< 0.1 | > 75 | > 1 | 50 to 75 | O=C1CCC(N2Cc3ccc(N4CCN(Cc5ccc(O[C@@H]6C[C@@H]7CNc8nnc(-c9cc(F)cc(F)c9O)cc8N7C6)cc5C(F)(F)F)CC4)cc3C2=O)C(=O)N1 (stereo partly drawn) [Example 15, 3-(6-(4-(4-(((6aR,8R)-2-(3,5-difluoro-2-hydroxyphenyl)-5,6,6a,7,8,9-hexahydropyrrolo[1′,2′:4,5]pyrazino[2,3-c]pyridazin-8-yl)oxy)-2-(trifluoromethyl)benzyl)piperazin-1-yl)-1-oxoisoindolin-2-yl)piperidine-2,6-dione]
< 0.1 | 50 to 75 | < 0.1 | 50 to 75 | CC(C)c1cc(O[C@@H]2C[C@@H]3CNc4nnc(-c5cc(F)cc(F)c5O)cc4N3C2)ccc1CN1CCN(c2ccc3c(c2)C(=O)N(C2CCC(=O)NC2=O)C3)CC1 (stereo partly drawn) [Example 16, 3-(6-(4-(4-(((6aR,8R)-2-(3,5-difluoro-2-hydroxyphenyl)-5,6,6a,7,8,9-hexahydropyrrolo[1′,2′:4,5]pyrazino[2,3-c]pyridazin-8-yl)oxy)-2-isopropylbenzyl)piperazin-1-yl)-1-oxoisoindolin-2-yl)piperidine-2,6-dione]
< 0.1 | > 75 | > 1 | < 50 | Cc1cc(O[C@@H]2C[C@@H]3CNc4nnc(-c5cc(F)cc(F)c5O)cc4N3C2)cc(C)c1CN1CCN(c2ccc3c(c2)C(=O)N(C2CCC(=O)NC2=O)C3)CC1 (stereo partly drawn) [Example 17, 3-(6-(4-(4-(((6aR,8R)-2-(3,5-difluoro-2-hydroxyphenyl)-5,6,6a,7,8,9-hexahydropyrrolo[1′,2′:4,5]pyrazino[2,3-c]pyridazin-8-yl)oxy)-2,6-dimethylbenzyl)piperazin-1-yl)-1-oxoisoindolin-2-yl)piperidine-2,6-dione]
< 0.1 | > 75 | < 0.1 | > 75 | Cc1c(CN2CCN(c3ccc4c(c3)C(=O)N(C3CCC(=O)NC3=O)C4)CC2)ccc(O[C@@H]2C[C@@H]3CNc4nnc(-c5cc(F)cc(F)c5O)cc4N3C2)c1C (stereo partly drawn) [Example 18, 3-(6-(4-(4-(((6aR,8R)-2-(3,5-difluoro-2-hydroxyphenyl)-5,6,6a,7,8,9-hexahydropyrrolo[1′,2′:4,5]pyrazino[2,3-c]pyridazin-8-yl)oxy)-2,3-dimethylbenzyl)piperazin-1-yl)-1-oxoisoindolin-2-yl)piperidine-2,6-dione]
< 0.1 | > 75 | < 0.1 | 50 to 75 | Cc1cc(O[C@@H]2C[C@@H]3CNc4nnc(-c5cc(F)cc(Cl)c5O)cc4N3C2)ccc1CN1CCN(c2ccc3c(c2)C(=O)N(C2CCC(=O)NC2=O)C3)CC1 (stereo partly drawn) [Example 19, 3-(6-(4-(4-(((6aR,8R)-2-(3-chloro-5-fluoro-2-hydroxyphenyl)-5,6,6a,7,8,9-hexahydropyrrolo[1′,2′:4,5]pyrazino[2,3-c]pyridazin-8-yl)oxy)-2-methylbenzyl)piperazin-1-yl)-1-oxoisoindolin-2-yl)piperidine-2,6-dione]
< 0.1 | > 75 | > 1 | < 50 | Cc1cc(O[C@@H]2C[C@@H]3CNc4nnc(-c5cccc(C)c5O)cc4N3C2)ccc1CN1CCN(c2ccc3c(c2)C(=O)N(C2CCC(=O)NC2=O)C3)CC1 (stereo partly drawn) [Example 20, 3-(6-(4-(4-(((6aR,8R)-2-(2-hydroxy-3-methylphenyl)-5,6,6a,7,8,9-hexahydropyrrolo[1′,2′:4,5]pyrazino[2,3-c]pyridazin-8-yl)oxy)-2-methylbenzyl)piperazin-1-yl)-1-oxoisoindolin-2-yl)piperidine-2,6-dione]
< 0.1 | > 75 | < 0.1 | > 75 | COc1cc(O[C@@H]2C[C@@H]3CNc4nnc(-c5cccc(Cl)c5O)cc4N3C2)ccc1CN1CCN(c2ccc3c(c2)C(=O)N(C2CCC(=O)NC2=O)C3)CC1 (stereo partly drawn) [Example 21, 3-(6-(4-(4-(((6aR,8R)-2-(3-chloro-2-hydroxyphenyl)-5,6,6a,7,8,9-hexahydropyrrolo[1′,2′:4,5]pyrazino[2,3-c]pyridazin-8-yl)oxy)-2-methoxybenzyl)piperazin-1-yl)-1-oxoisoindolin-2-yl)piperidine-2,6-dione]
< 0.1 | > 75 | < 0.1 | > 75 | O=C1CCC(N2Cc3ccc(N4CCN(Cc5ccc(O[C@@H]6C[C@@H]7CNc8nnc(-c9cc(F)cc(Cl)c9O)cc8N7C6)cc5)CC4)cc3C2=O)C(=O)N1 (stereo partly drawn) [Example 22, 3-(6-(4-(4-(((6aR,8R)-2-(3-chloro-5-fluoro-2-hydroxyphenyl)-5,6,6a,7,8,9-hexahydropyrrolo[1′,2′:4,5]pyrazino[2,3-c]pyridazin-8-yl)oxy)benzyl)piperazin-1-yl)-1-oxoisoindolin-2-yl)piperidine-2,6-dione]
< 0.1 | > 75 | < 0.1 | 50 to 75 | Cc1cccc(-c2cc3c(nn2)NC[C@H]2C[C@@H](Oc4ccc(CN5CCN(c6ccc7c(c6)C(=O)N(C6CCC(=O)NC6=O)C7)CC5)cc4)CN32)c1O (stereo partly drawn) [Example 23, 3-(6-(4-(4-(((6aR,8R)-2-(2-hydroxy-3-methylphenyl)-5,6,6a,7,8,9-hexahydropyrrolo[1′,2′:4,5]pyrazino[2,3-c]pyridazin-8-yl)oxy)benzyl)piperazin-1-yl)-1-oxoisoindolin-2-yl)piperidine-2,6-dione]
< 0.1 | 50 to 75 | > 1 | < 50 | O=C1CCC(N2Cc3ccc(N4CCN(Cc5ccc(O[C@@H]6C[C@@H]7CNc8nnc(-c9cc(F)cc(F)c9O)cc8N7C6)cc5OC(F)(F)F)CC4)cc3C2=O)C(=O)N1 (stereo partly drawn) [Example 24, 3-(6-(4-(4-(((6aR,8R)-2-(3,5-difluoro-2-hydroxyphenyl)-5,6,6a,7,8,9-hexahydropyrrolo[1′,2′:4,5]pyrazino[2,3-c]pyridazin-8-yl)oxy)-2-(trifluoromethoxy)benzyl)piperazin-1-yl)-1-oxoisoindolin-2-yl)piperidine-2,6-dione]
